According to patent US20110269759A1, “PYRIMIDINE COMPOUNDS AS DELTA OPIOID RECEPTOR MODULATORS” (priority 2009, published 2011):
pEC50, pKi: −log10 of the molar value. Where two headings read alike, the source gives them in different places.

Legend:
δ-opioid receptor [1] = target: T1, δ-opioid receptor (Mus musculus, UniProt P32300); assay: [35S]GTPγS binding assay in NG108-15 cell membranes (delta opioid functional assay), 200 nM screen; assay type: biochemical; design: NG108-15 cell membranes were purchased from Applied Cell Sciences (Rockville, Md.); host or cells: NG108-15 cell membranes (purchased); details: 200 nM compound, relative to calculated max of SNC80 dose response
T1 sequence (P32300 whole entry): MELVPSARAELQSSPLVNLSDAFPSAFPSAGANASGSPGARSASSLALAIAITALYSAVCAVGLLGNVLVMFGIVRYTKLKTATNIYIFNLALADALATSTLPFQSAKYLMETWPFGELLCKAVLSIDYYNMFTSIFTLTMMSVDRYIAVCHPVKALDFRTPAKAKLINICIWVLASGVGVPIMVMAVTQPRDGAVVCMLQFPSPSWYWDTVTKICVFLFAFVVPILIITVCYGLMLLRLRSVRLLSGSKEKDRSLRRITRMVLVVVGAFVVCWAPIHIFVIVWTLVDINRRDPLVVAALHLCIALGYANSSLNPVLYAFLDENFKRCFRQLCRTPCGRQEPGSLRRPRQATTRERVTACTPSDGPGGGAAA

δ-opioid receptor [2] = target: T1, δ-opioid receptor; assay: [35S]GTPγS δ-opioid receptor functional assay (EC50, relative efficacy, % inhibition); assay type: biochemical; design: NG108-15 cell membranes were purchased from Applied Cell Sciences (Rockville, Md.); details: for inhibition at 10 µM: read-out: GTPγS δ-opioid receptor % Inh @10 μM
Delta Opioid Receptor [3] = target: T2, Delta Opioid Receptor (Mus musculus, UniProt P32300); assay: NG108-15, 24-well delta opioid receptor binding assay ([3H]naltrindole)
T2 construct: NG108-15 cell membranes were purchased from Applied Cell Sciences (Rockville, Md.); host or cells: NG108-15 cell membranes (purchased)
T2 sequence (P32300 whole entry): as above

Mu Opioid Receptor = target: T3, Mu Opioid Receptor (Rattus norvegicus, UniProt P33535); assay: Rat brain mu opioid receptor binding assay ([3H]DAMGO)
T3 construct: the forebrains were homogenized in Tris buffer in a Teflon®-glass homogenizer; from tissue; host or cells: forebrain of male Wistar rats, particulate membrane preparation
T3 sequence (P33535 whole entry): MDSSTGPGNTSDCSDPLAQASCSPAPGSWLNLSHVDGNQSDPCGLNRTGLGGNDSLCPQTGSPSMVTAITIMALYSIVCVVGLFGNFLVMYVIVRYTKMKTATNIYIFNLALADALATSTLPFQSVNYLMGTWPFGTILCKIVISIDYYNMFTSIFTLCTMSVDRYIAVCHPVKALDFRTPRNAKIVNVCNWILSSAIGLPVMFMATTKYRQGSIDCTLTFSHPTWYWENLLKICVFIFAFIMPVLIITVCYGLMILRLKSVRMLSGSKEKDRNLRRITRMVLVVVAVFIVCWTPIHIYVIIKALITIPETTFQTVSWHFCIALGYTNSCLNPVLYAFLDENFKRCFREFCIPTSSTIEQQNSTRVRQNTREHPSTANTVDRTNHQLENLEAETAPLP

mice = assay: Mouse Graded Abdominal Irritant Test (GrAIT); assay type: in vivo; details: 10% Solutol, 30 min pretreatment
Protocol: Test compound or vehicle was administered s.c. or p.o. to mice. Following the pretreatment time, an i.p. injection of 0.6% of acetic acid in 0.5 mL was administered. Five min after acetic acid administration, mice were placed into clear chambers and were continuously observed for 5 min. Behavioral responses including twisting and elongation of the body that extended through the hindlimbs were counted and averaged for the group of animals over the observation period.

Delta Opioid Receptor [4] = target: T4, Delta Opioid Receptor (Rattus norvegicus, UniProt P33533); assay: Rat brain delta opioid receptor binding assay ([3H]DPDPE or [3H]naltrindole)
T4 construct: the forebrains were homogenized in Tris buffer in a Teflon®-glass homogenizer; from tissue; host or cells: forebrain of male Wistar rats, particulate membrane preparation
T4 sequence (P33533 whole entry): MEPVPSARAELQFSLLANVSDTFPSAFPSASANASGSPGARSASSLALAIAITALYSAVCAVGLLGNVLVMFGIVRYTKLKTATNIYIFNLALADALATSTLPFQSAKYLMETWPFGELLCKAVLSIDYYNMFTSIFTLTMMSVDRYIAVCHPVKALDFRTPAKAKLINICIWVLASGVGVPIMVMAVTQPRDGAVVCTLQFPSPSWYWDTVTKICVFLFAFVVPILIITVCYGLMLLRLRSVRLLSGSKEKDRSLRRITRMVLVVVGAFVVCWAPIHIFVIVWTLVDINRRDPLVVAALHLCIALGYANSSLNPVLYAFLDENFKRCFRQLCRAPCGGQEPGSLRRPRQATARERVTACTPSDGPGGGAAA

[5] = NG108-15 cell membranes, ~0.2 nM [3H]naltrindole, read-out: δ-binding NG108 cell membrane Ki
[6] = rat forebrain membranes, 0.25 nM [3H]naltrindole, read-out: δ-binding (Naltrindole ligand) Ki
[7] = read-out: GTPγS δ-opioid receptor EC50
[8] = rat forebrain membranes, ~0.8 nM [3H]DAMGO, read-out: μ-binding Ki
[9] = rat forebrain membranes, ~4 nM [3H]DPDPE, read-out: δ-binding (DPDPE ligand) Ki

Row | Compound | GTPγS δ-RelEfficacy @200 nM (δ-opioid receptor [1]) | pEC50 (δ-opioid receptor [2]) | GTPγS δ-opioid receptor Rel Efficacy (δ-opioid receptor [2]) | inhibition at 10 µM (δ-opioid receptor [2]) | further results
1 | COc1ccc(Oc2cc(-c3cncc(SC)c3)ccc2NC[C@@H]2C[C@@H](F)CN2)cc1 [Cpd 26] | 0.7 | 6.73 | 1.0716 |  | 
2 | COc1ccc(Oc2cc(-c3cncnc3)ccc2NC[C@@H]2CCCN2)cc1 [Cpd 42] | 0.39 |  |  |  | pKi (Delta Opioid Receptor [3]; [5]): 8.86
3 | CCN(CC)C(=O)c1ccc(NC[C@@H]2CCCN2)c(Oc2ccc(OC)cc2)c1 [Cpd 10] |  |  |  |  | pKi (Mu Opioid Receptor): 6.03; # abdominal stretches (cpd) (mice; 30 mg/kg p.o.): 19; # abdominal stretches (cpd) (mice; 30 mg/kg s.c.): 11; # abdominal stretches (cpd) (mice; 100 mg/kg p.o.): 17.9; # abdominal stretches (cpd) (mice; 300 mg/kg p.o.): 21.2; pKi (Delta Opioid Receptor [4]; [6]): 6.03
4 | COc1ccc(Oc2cc(-c3cncc(C#N)c3)ccc2NC[C@@H]2CCCN2)cc1 [Cpd 44] | 0.45 |  | 1.1554 |  | pKi (Delta Opioid Receptor [3]; [5]): 9.36; pEC50 (δ-opioid receptor [2]; [7]): 6.93
5 | COc1ccc(Oc2cc(-c3cncc(F)c3)ccc2NC[C@@H]2C[C@@H](F)CN2)cc1 [Cpd 25] | 0.78 | 7.03 | 1.0217 |  | 
6 | COc1ccc(Oc2cc(-c3cncc(C#N)c3)ccc2NC[C@@H]2C[C@@H](F)CN2)cc1 [Cpd 24, (2S,4R)-5-[4-[(4-Fluoro-pyrrolidin-2-ylmethyl)-amino]-3-(4-methoxy-phenoxy)-phenyl]-nicotinonitrile] | 1.01 | 7.34 | 1.0158 |  | 
7 | CCN(C[C@@H]1CCCN1)c1ccc(-c2cncc(F)c2)cc1Oc1ccc(OC)cc1 [Cpd 50] |  |  |  |  | pKi (Delta Opioid Receptor [3]): 7.64
8 | CCN(CC)C(=O)CCc1ccc(NC[C@@H]2CCCN2)c(Oc2ccc(OC)cc2)c1 [Cpd 2, N,N-Diethyl-3-[3-(4-methoxyphenoxy)-4-{[(2S)-pyrrolidin-2-ylmethyl]amino}phenyl]propanamide] |  |  | 0.8333 | 22.8% | pEC50 (δ-opioid receptor [2]; [7]): 7.41; pKi (Mu Opioid Receptor; [8]): < 4.00; pKi (Delta Opioid Receptor [4]; [6]): 7.58
9 | COc1ccc(Oc2cc(-c3cncc(F)c3)ccc2NC[C@@H]2CCCN2)cc1 [Cpd 43] | 0.43 | 6.66 | 1.0908 |  | pKi (Delta Opioid Receptor [3]): 9.12
10 | COc1ccc(Oc2ccc(NC[C@@H]3CCCN3)c(Oc3ccc(OC)cc3)c2)cc1 [Cpd 53, (S)-[2,4-Bis-(4-methoxy-phenoxy)-phenyl]-pyrrolidin-2-ylmethyl-amine] |  | 6.50 |  | 28.2% | pKi (Mu Opioid Receptor; [8]): < 5.00; pKi (Delta Opioid Receptor [4]; [9]): 6.98
11 | CCN(C[C@@H]1CCCN1)c1ccc(-c2cccnc2)cc1Oc1ccc(OC)cc1 [Cpd 49, (S)-Ethyl-[2-(4-methoxy-phenoxy)-4-pyridin-3-yl-phenyl]-pyrrolidin-2-ylmethyl-amine] |  |  |  |  | pKi (Delta Opioid Receptor [3]; [5]): 7.54
12 | CCN(CC)C(=O)/C=C/c1ccc(NC[C@@H]2CCCN2)c(Oc2ccc(OC)cc2)c1 [Cpd 1, (2E)-N,N-Diethyl-3-[3-(4-methoxyphenoxy)-4-{[(2S)-pyrrolidin-2-ylmethyl]amino}phenyl]prop-2-enamide] |  | 6.96 | 0.8328 | 2.26% | pKi (Mu Opioid Receptor): 5.47; # abdominal stretches (cpd) (mice; 30 mg/kg s.c.): 10.9; pKi (Delta Opioid Receptor [4]): 8.22
13 | CCN(C[C@@H]1CCCN1)c1ccc(-c2cncnc2)cc1Oc1ccc(OC)cc1 [Cpd 51] |  |  |  |  | pKi (Delta Opioid Receptor [3]; [5]): 7.11
14 | Oc1ccc(Oc2cc(-c3cccnc3)ccc2NC[C@@H]2CCCN2)cc1 [Cpd 45, (S)-4-{5-Pyridin-3-yl-2-[(pyrrolidin-2-ylmethyl)-amino]-phenoxy}-phenol] |  | 7.39 | 0.627 | 35.6% | pKi (Mu Opioid Receptor): 5.35; pKi (Delta Opioid Receptor [4]): 8.27
15 | COc1ccc(Oc2cc(-c3cccnc3)ccc2NC[C@@H]2CCCN2)cc1 [Cpd 39] |  | 6.95 | 0.9245 | 13.4% | pKi (Delta Opioid Receptor [3]): 8.78; pKi (Mu Opioid Receptor): 5.51; pKi (Delta Opioid Receptor [4]): 7.66
16 | COc1ccc(Oc2ccc(NC3CCCC(N)C3)c(Oc3ccc(OC)cc3)c2)cc1 (stereo not drawn) [Cpd 62] |  | 6.42 |  | 1.73% | pKi (Mu Opioid Receptor): 5.78; pKi (Delta Opioid Receptor [4]): 7.39
17 | CCN(C[C@@H]1CCCN1)c1ccc(-c2cncc(C#N)c2)cc1Oc1ccc(OC)cc1 [Cpd 52] |  |  |  |  | pKi (Delta Opioid Receptor [3]): 8.03
18 | COc1ccc(Oc2cc(-c3ccccc3)ccc2NC[C@@H]2CCCN2)cc1 [Cpd 35, (S)-[3-(4-Methoxy-phenoxy)-biphenyl-4-yl]-pyrrolidin-2-ylmethyl-amine] |  |  |  | 1% | pKi (Mu Opioid Receptor; read-out: μ-binding Ki): < 5.00; pKi (Delta Opioid Receptor [4]): 7.54
19 | COc1ccc(Oc2ccc(NCC3CCCNC3)c(Oc3ccc(OC)cc3)c2)cc1 (racemic) [Cpd 61] |  | 5.39 |  | 16.1% | pKi (Mu Opioid Receptor; [8]): < 5.00; pKi (Delta Opioid Receptor [4]; [9]): 6.95
